Source: PubChem BioAssay (NCI)
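Interpolation was linear, between the two tested concentrations surrounding the appropriate level; five concentrations were tested over 48 hours in 96-well plates. Abbreviation: GI50, concentration required for 50% inhibition of growth. TGI denotes the concentration required for complete inhibition of growth.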

Experiments:
Assay in all cases: inhibition of tumour cell growth, NCI panel, 48 h
[1] = tested on: UACC-257 melanoma
[2] = tested on: NCI-H460 lung
[3] = tested on: A549 NSCLC
[4] = tested on: IGROV1 ovarian
[5] = tested on: A498 renal
[6] = tested on: OVCAR-3 ovarian
[7] = tested on: SF-268 CNS
[8] = tested on: LOX IMVI melanoma
[9] = tested on: NCI-H522 lung

SMILES	TGI [1] [µM]	TGI [2] [µM]	TGI [3] [µM]	TGI [4] [µM]	TGI [5] [µM]	TGI [6] [µM]	TGI [7] [µM]	TGI [8] [µM]	TGI [9] [µM]	GI50 [1] [µM]	GI50 [2] [µM]	GI50 [3] [µM]	GI50 [4] [µM]	GI50 [5] [µM]	GI50 [6] [µM]	GI50 [7] [µM]	GI50 [8] [µM]	GI50 [9] [µM]
CC1=NN(c2ccccc2)C(=O)C12[C@H](c1ccccc1)C2(C#N)C#N (stereo partly drawn)	18.4	41.5	31.9	28.1	31.6	19.5	20.6	4.63	11.5									
O=C(c1ccccc1)c1nnn(Cc2ccccc2Cn2nnc(C(=O)c3ccccc3)c2C(=O)c2ccccc2)c1C(=O)c1ccccc1	> 100	> 100	> 100	> 100	> 100	> 100	> 100	> 100	> 100									
CCC1CCCCN1CC(C(C)=O)C(c1ccccc1)c1c(O)c2ccccc2oc1=O (stereo not drawn)	> 100	> 100	> 100	> 100	> 100	> 100	> 100	> 100	> 100									
C=CCC12CC(=O)CCC1c1ccc(OC)cc1C2=O (stereo not drawn)	> 100	> 100	> 100	> 100	> 100	> 100	> 100	> 100	> 100									
O=C1OCC2=C1C(c1cccc(C(F)(F)F)c1)c1cc3c(cc1N2CCO)OCCO3 (stereo not drawn)	> 33.3	> 33.3	> 33.3	> 33.3	3.25	> 33.3	> 33.3	> 33.3	2.89	> 33.3	1.22	1.53	2.75	0.866	1.24	2.54	1.66	0.488
CC(/C=C/C(=O)c1sc(C(N)=S)nc1C)=C\c1ccccc1	> 100	> 100	> 100	> 100	> 100	> 100	> 100	40.2	> 100									
Cc1cc(=O)[nH]c(NNC(C#N)c2ccccc2O)n1 (stereo not drawn)	> 100	> 100	> 100	> 100		> 100	> 100	> 100	> 100									
Cc1ccc(N2C(=O)/C(=C/c3ccc(N(CCC#N)CCC#N)cc3)N=C2COc2ccc(Cl)cc2Cl)cc1	> 100	> 100	> 100	> 100		> 100	> 100	> 100	> 100									
O=C1C(Cl)=C(Cl)C(=O)N1c1ccc(Cl)c(Cl)c1Cl	> 100	> 100	> 100	> 100	> 100	> 100	> 100	> 100	28.8									
Brc1cc(C2OCCCO2)ccc1OCc1ccccc1	> 100	> 100	> 100	> 100	> 100	> 100	> 100	63.5	> 100									
CCOC(=O)c1sc2c(C(=O)OCC)n3cc(C)cc(C)c3c2c1O		> 100	> 100	> 100		> 100	> 100	> 100	> 100									
COc1ccc(Br)c(CN2CCc3ccccc32)c1OS(=O)(=O)c1ccc(C)cc1	> 100		> 100			75.9	> 100		30.8									
CCOC(=O)[C@@]12C(C)=CC(=O)O[C@]1(C)C1C(=O)NC(=O)C12 (stereo partly drawn)	> 100	> 100	> 100	> 100	> 100	> 100		> 100										
COc1cc(Cc2c(C)cc(OC)c3[nH]c4ccccc4c23)cc2c1[nH]c1ccccc12		12.1	16.7	> 25		12.3	24.9	8.6	11.6		5.13	5.73	9.03			6.97	3.85	5.03
COC(=O)/C(C#N)=C1\CCC(OC)N1C (stereo not drawn)	> 100	> 100	> 100	> 100		> 100	> 100	> 100	> 100									
O=C(O)c1c2c(cc3c(=O)c4ccccc4[nH]c13)CCCC2	> 100	> 100	> 100	> 100		> 100	> 100	> 100										
Cc1ccccc1-n1c(=S)[nH]c2c(sc(=O)n2-c2ccccc2C)c1=O	> 100	> 100	> 100	> 100	> 100	> 100	> 100		> 100									
CN1CCC(c2c(O)cc(O)c3c(=O)cc(-c4ccccc4Cl)oc23)C(O)C1 (stereo not drawn)		> 100	> 100	> 100		0.0223	0.238		0.448				0.0827		< 0.01			
COC(=O)C(=O)C(C(=O)C(=O)Nc1ccccc1[N+](=O)[O-])c1nc2ccc([N+](=O)[O-])cc2[nH]c1=O (stereo not drawn)	> 100	> 100	> 100	> 100	> 100		> 100	> 100	> 100									
